Experimental data taken from patent US11213499B1, “Use of 3,3′-diselenodipropionic acid (DSePA) as an anticancer agent” (Secretary, Department of Atomic Energy, priority 2020, dated 2022).
Read-outs that look alike come from different tables or passages of the source.

How the values were obtained:
[1] = mice; cited from earlier work
[2] = test system: A549 (Human non-small cell lung adenocarcinoma); assay: SRB/MTT anti-proliferative assay, A549; type: cell-based; settings: 48 hours treatment, read-out: GI50 (Concentration of drug causing 50% inhibition of cell growth)
Experimental: (§1) The anticancer effect of DSePA was evaluated using a panel of twenty-five human cancer cell lines of different tissue origins. Cells were treated with the increasing concentrations (0.1-100 μM) of DSePA for 48 h and viability was monitored by (Sulforhodamine B) SRB assay or MTT assay.
(§2) Cell culture and DSePA synthesis—DSePA was synthesized and characterized as described in our previous reports. Cell lines were cultured in growth medium (DMEM/RPMI) supplemented with 10% FBS, 100 U/ml penicillin and 100 μg/ml streptomycin at 37° C. in a humidified 5% CO2 environment. The stock solution of DSePA was prepared fresh in cell culture medium and diluted with the same to achieve the desired concentrations.
(§3) SRB/MTT Assay—To evaluate the anti-proliferative effect of DSePA, Cells (˜5×10^3) suspended in 100 μl of complete culture medium were seeded in each well of 96 well plates. The cells were allowed to attach and grow for 24 h, treated with desired concentrations of DSePA dissolved in culture medium for 48 h and then processed for SRB/MTT assay as described in literature. The percentage (%) cytotoxicity was calculated from the decrease in absorbance as compared to that of control group.

[3] = test system: H460 (Human non-small cell lung adenocarcinoma); assay: SRB/MTT anti-proliferative assay, H460; type: cell-based; settings: 48 hours treatment, read-out: GI50 (Concentration of drug causing 50% inhibition of cell growth)
Experimental: as §1, §2, §3

[4] = test system: CHO (Chinese Hamster Ovary (normal)); assay: SRB/MTT assay, normal CHO cells; type: cell-based
Experimental: as §1, §2, §3

[5] = rat; cited from earlier work

SMILES: O=C(O)CC[Se][Se]CCC(=O)O [DSePA, 3,3′-diselenodipropionic acid]
- estimated median oral Lethal dose (LD50) cut-off [1]: 200 mg/kg
- GI50 [2]: 10 µM
- GI50 ([2]; Homo sapiens, A549, 48 h): ≤ 10 µM
- GI50 [3]: 8 µM
- GI50 ([3]; Homo sapiens, NCI-H460, 48 h): ≤ 10 µM
- toxicity in normal cell types ([4]; CHO, 0.1-100 μM, 48 h): did not show toxicity
- GI50 ([4]; Cricetulus griseus, CHO normal cells, 48 hours treatment, SRB/MTT assay, read-out: GI50 (Concentration of drug causing 50% inhibition of cell growth)): > 100 µM
- estimated median oral Lethal dose (LD50) cut-off [5]: 25 mg/kg
